Data from patent US20230010886A1 (SUZHOU PUHE BIOPHARMA CO., LTD., priority 2019, published 2023).

Experiments:
Mai-Pa-ca-2 cells = experiment: Pancreatic cancer Mia-Pa-Ca-2 xenograft studies; type: in vivo, BALB/c nude mice
Method: (§1) Mai-Pa-ca-2 cells were expanded in culture, harvested and injected subcutaneously into 6-8 weeks old female BALB/c nude mice (5×10^6 cell/each mouse, supplemented with Matrigel (1:1) for tumor development, n=9 per group). Subsequent administration of a compound by oral gavage started when the mean tumor size reached approximately 150-200 mm^3. During the treatment (once a day for 21 days), the tumor volumes were measured using a caliper. Statistical analysis of difference in tumor volume among the groups were evaluated using a one-way ANOVA. Vehicle alone was the negative control.

NCI-H358 cells = experiment: Combination treatment of a SHP2 inhibitor with other therapeutic agents, NSCLC with KRAS mutant xenograft; type: in vivo, BALB/c nude mice; conditions: 10 mg/kg per day combined with CDK4/6 inhibitor SYB-020097 (30 mg/kg per day), oral once daily for 28 days, mice
Method: as §1, with “NCI-H358” for “Mai-Pa-ca-2”, “compound or combination of compounds” for “compound”, “4 weeks),” for “21 days),”

KYSE-520 cells = experiment: Esophageal KYSE-520 xenograft model; type: in vivo, BALB/c nude mice; conditions: oral 30 mg/kg per day, once a day for 4 weeks, mice
Method: as §1, with “KYSE-520” for “Mai-Pa-ca-2”, “4 weeks),” for “21 days),”

KYSE-520 cell line = experiment: Cell proliferation assay (CellTiter Glo), KYSE-520; type: cell-based; conditions: Homo sapiens, 3-5 days
Method: Firstly, the cells were seeded in 384-well cell culture plate and incubate overnight. The test compounds were added to the cell plate and incubated for 3-5 days. The cell plate was then detected using CellTiter Glo reagents.

Full length SHP2 enzyme = biological target: T1, Full length SHP2 enzyme (Homo sapiens, UniProt Q06124); experiment: SHP2 phosphatase assay; type: biochemical; conditions: 1 μM IRS-1 peptide, DiFMUP substrate
T1 construct: Full length SHP2 enzyme (diluted to 0.1 nM in reaction buffer)
T1 sequence (Q06124 1-593): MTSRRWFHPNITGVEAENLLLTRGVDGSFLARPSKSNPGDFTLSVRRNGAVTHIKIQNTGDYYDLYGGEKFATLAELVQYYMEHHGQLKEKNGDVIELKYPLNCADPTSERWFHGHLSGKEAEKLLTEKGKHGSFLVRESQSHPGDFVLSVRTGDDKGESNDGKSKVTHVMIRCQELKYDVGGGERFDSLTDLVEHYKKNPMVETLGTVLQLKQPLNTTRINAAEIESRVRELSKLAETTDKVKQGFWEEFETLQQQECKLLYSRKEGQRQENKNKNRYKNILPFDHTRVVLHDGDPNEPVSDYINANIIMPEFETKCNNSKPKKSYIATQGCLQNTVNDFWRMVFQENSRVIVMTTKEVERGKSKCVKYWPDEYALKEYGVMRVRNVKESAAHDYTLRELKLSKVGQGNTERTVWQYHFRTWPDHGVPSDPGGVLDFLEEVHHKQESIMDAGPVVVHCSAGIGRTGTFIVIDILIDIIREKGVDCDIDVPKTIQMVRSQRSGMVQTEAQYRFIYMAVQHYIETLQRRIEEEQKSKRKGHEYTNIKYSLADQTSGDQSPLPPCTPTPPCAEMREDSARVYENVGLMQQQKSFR
Method: IC50 values were determined at room temperature in 384-well black polystyrene plate, using a final reaction volume of 15 μL and the following assay buffer conditions: 60 mM Hepes (pH=7.2), 75 mM NaCl, 75 mM KCl, and 1 mM EDTA, 0.05% P-20, 5 mM dithiothreitol (DTT). Full length SHP2 enzyme (diluted to 0.1 nM in reaction buffer) were co-incubated with 1 μM IRS-1 peptide and 0.01 nM to 10 μM compounds of the disclosure for 60 min. The surrogate substrate DiFMUP (5 μL, 100 μM) was added, and incubated at rt for 60 min. The reaction was then quenched by the addition of 5 μL of a 40 μM solution of bpV(Phen). The fluorescence signal was monitored using a microplate reader (Envision, Perkin-Elmer) using excitation and emission wavelengths of 360 nm and 450 nm, respectively. The inhibitor dose-response curves were analyzed using normalized IC50 regression curve fitting with control-based normalization.

Row | SMILES | IC50 (Full length SHP2 enzyme) | IC50 (KYSE-520 cell line) | other results
1 | C[C@@H]1OCC2(CCN(c3ncc(Sc4cccc(Cl)c4Cl)[nH]c3=O)CC2)[C@@H]1N |  |  | reduction of tumor growth, combination vs each compound alone (Mai-Pa-ca-2 cells; 30 mg/kg per day co-administered with CDK4/6 inhibitor SYB-020097 (50 mg/kg per day)): significantly higher reduction of tumor growth; reduction of tumor growth, combination vs each compound alone (Mai-Pa-ca-2 cells; 30 mg/kg per day co-administered with MEK inhibitor SYB-020099 (1 mg/kg per day)): significantly higher reduction of tumor growth; improvement of combination over monotherapy (NCI-H358 cells): more than 50%; anti-tumor activity compared with reference compound (KYSE-520 cells): superior anti-tumor activities than reference compound RMC-4550; tumor growth inhibition (KYSE-520 cells): more than 90%
2 | NC1COCC12CCN(c1ncc(Sc3cccc(Cl)c3Cl)[nH]c1=O)CC2 (stereo not shown) [Example 10, 3-(4-amino-2-oxa-8-azaspiro[4.5]decan-8-yl)-6-((2,3-dichlorophenyl)thio)pyrazin-2 (1H)-one] |  | < 5000 nM | 
3 | CC1(CN)CCN(c2ncc(Sc3cccc(NC(=O)c4c(O)nc5ccccn5c4=O)c3Cl)[nH]c2=O)CC1 [Example 29, N-(3-((5-(4-(aminomethyl)-4-methylpiperidin-1-yl)-6-oxo-1,6-dihydropyrazin-2-yl)thio)-2-chlorophenyl)-2-hydroxy-4-oxo-4H-pyrido[1,2-a]pyrimidine-3-carboxamide] | ≤ 50 nM | < 5000 nM | 
4 | CC1(CN)CCN(c2ncc(Sc3cccc(NC(=O)c4c(O)nc5sccn5c4=O)c3Cl)[nH]c2=O)CC1 [Example 31, N-(3-((5-(4-(aminomethyl)-4-methylpiperidin-1-yl)-6-oxo-1,6-dihydropyrazin-2-yl)thio)-2-chlorophenyl)-7-hydroxy-5-oxo-5H-thiazolo[3,2-a]pyrimidine-6-carboxamide] | ≤ 50 nM | < 5000 nM | 
5 | N[C@@H]1COCC12CCN(c1ncc(Sc3cccc(Cl)c3Cl)[nH]c1=O)CC2 [Example 73, (S)-3-(4-amino-2-oxa-8-azaspiro[4.5]decan-8-yl)-6-((2,3-dichlorophenyl)thio)pyrazin-2 (1H)-one] | ≤ 50 nM | < 5000 nM | 
6 | C[C@@H]1OCC2(CCN(c3ncc(Sc4ccnc(Cl)c4Cl)[nH]c3=O)CC2)[C@@H]1N [Example 81, 3-((3S,4S)-4-amino-3-methyl-2-oxa-8-azaspiro[4.5]decan-8-yl)-6-((2,3-dichloropyridin-4-yl)thio)pyrazin-2(1H)-one] | ≤ 50 nM | < 1000 nM | 

Second part, led by results:

Row | IC50 (Full length SHP2 enzyme) | SMILES | IC50 (KYSE-520 cell line) | other results
7 | ≤ 50 nM | C[C@@H]1OCC2(CCN(c3ncc(Sc4cccc(F)c4F)[nH]c3=O)CC2)[C@@H]1N [Example 82, 3-((3S,4S)-4-amino-3-methyl-2-oxa-8-azaspiro[4.5]decan-8-yl)-6-((2,3-difluorophenyl)thio)pyrazin-2(1H)-one] | < 5000 nM | 
8 | ≤ 50 nM | C[C@@H]1OCC2(CCN(c3ncc(Sc4ccnc(F)c4Cl)[nH]c3=O)CC2)[C@@H]1N [Example 83, 3-((3S,4S)-4-amino-3-methyl-2-oxa-8-azaspiro[4.5]decan-8-yl)-6-((3-chloro-2-fluoropyridin-4-yl)thio)pyrazin-2(1H)-one] | < 1000 nM | 
9 | ≤ 50 nM | C[C@@H]1OCC2(CCN(c3ncc(Sc4ccnc(F)c4F)[nH]c3=O)CC2)[C@@H]1N [Example 84] | < 1000 nM | 
10 | ≤ 50 nM | C[C@@H]1OCC2(CCN(c3ncc(Sc4cccc(F)c4Cl)[nH]c3=O)CC2)[C@@H]1N [Example 109, 3-((3S,4S)-4-amino-3-methyl-2-oxa-8-azaspiro[4.5]decan-8-yl)-6-((2-chloro-3-fluorophenyl)thio)pyrazin-2(1H)-one] | < 5000 nM | 
11 | ≤ 50 nM | N[C@@H]1c2cccnc2CC12CCN(c1ncc(Sc3cccc(Cl)c3Cl)[nH]c1=O)CC2 [Example 134, (S)-3-(5-amino-5,7-dihydrospiro[cyclopenta[b]pyridine-6,4′-piperidin]-1′-yl)-6-((2,3-dichlorophenyl)thio)pyrazin-2(1H)-one] |  | 
12 | ≤ 50 nM | N[C@H]1CCCC12CCN(c1ncc(Sc3ccnc(Cl)c3Cl)[nH]c1=O)CC2 [Example 135, (S)-3-(1-amino-8-azaspiro[4.5]decan-8-yl)-6-((2,3-dichloropyridin-4-yl)thio)pyrazin-2(1H)-one] |  | 
13 | ≤ 50 nM | [2H][C@@]1(N)[C@H](C)OCC12CCN(c1ncc(Sc3cccc(Cl)c3Cl)[nH]c1=O)CC2 [Example 136] |  | 
